Experimental data reported in patent US6544989B2, “Benzazoles: benzoxazole, benzthiazole and benzimidazole derivatives” (Syngenta Limited, priority 1998, dated 2003).

Columns and labels:
Uncinula necator = test: Fungicidal test, Uncinula necator (UNCINE) on vines, PRCO; assay type: in vivo; conditions: METHOD 2 (unbanded)
[1] = test system: Phytophthora infestans lycopersici; assay type: in vivo; conditions: METHOD 2 (unbanded)
Venturia inaequalis = test: Fungicidal test, Venturia inaequalis (VENTIN) on apples, PRCO; assay type: in vivo; conditions: METHOD 2 (unbanded)
[2] = test system: Erysiphe graminis f.sp. tritici; test: Fungicidal test, Erysiphe graminis f.sp. tritici (ERYSGT) on wheat, PRCO; assay type: in vivo; conditions: METHOD 2 (unbanded)
Septoria nodorum = test: Fungicidal test, Septoria nodorum (LEPTNO) on wheat, PRCO; assay type: in vivo; conditions: METHOD 2 (unbanded)
Puccinia recondita = test: Fungicidal test, Puccinia recondita (PUCCRT) on wheat, PRCO; assay type: in vivo; conditions: METHOD 2 (unbanded)
Meloidogyne incognita = test: Nematode test, J2 infective juveniles of Meloidogyne incognita, mortality; conditions: 12.5 ppm; J2 infective juveniles suspended in solution; mortality after three days
Experimental: The activities of individual compounds of formula (I) were determined using a variety of pests. With the exception of nematodes, the pests were treated with a liquid composition containing 500 parts per million (ppm) by weight of a compound unless otherwise stated. Each composition was made by dissolving the compound in an acetone and ethanol (50:50 by volume) mixture and diluting the solution with water containing 0.05% by volume of a wetting agent, SYNPERONIC NP8, until the liquid composition contained the required concentration of the compound.
The test procedure for nematodes involved dissolving the compound in an acetone and ethanol (50:50 by volume) mixture and diluting the solution with water to obtain a final concentration of the compound of 12.5 ppm. J2 infective juveniles of Meloidogyne incognita were suspended in the solution in a glass vial and mortality assessed after a period of three days.

Pyricularia oryzae = assay type: in vivo; conditions: METHOD 2 (unbanded)
Musca domestica = conditions: 500 ppm by weight; knockdown assessed 15 minutes after treatment

SMILES	UNCINE 1 d Prot/Foir PRCO (Uncinula necator)	PHYTIN 1 d Prot/Foir PRCO [1]	VENTIN 1 d Prot/Foir PRCO (Venturia inaequalis)	ERYSGT 6 hr Prot/Foir PRCO [2]	ERYSGT 1 d Prot/Foir PRCO [2]	LEPTNO 1 d Prot/Foir PRCO (Septoria nodorum)	PUCCRT 1 d Prot/Foir PRCO (Puccinia recondita)	MELGIN = Meloidogyne incognita, grading of mortality (score) (Meloidogyne incognita)	PYRIOR 1 d Prot/Foir PRCO (Pyricularia oryzae)	MUSCDO AC = Musca domestica (knockdown), score (Musca domestica)
Cc1nsc(NC(=O)Cc2ccc3oc(-c4ccccc4Cl)nc3c2)c1Cl [253(A3)]	100	98	34	94	94	8	99	0 (0 indicates less than 40% mortality)	–	–
Cc1nsc(NC(=O)Cc2ccc3nc(CC(C)(C)C)[nH]c3c2)c1Cl [15(A43)]	63	80	–	–	–	0	–	–	63	–
COCc1nc2cc(CC(=O)Nc3snc(C)c3Cl)ccc2o1 [130(A3)]	86	–	60	–	87	21	100	0 (0 indicates less than 40% mortality)	93	–
Cc1nsc(NC(=O)Cc2ccc3oc(-c4ccncc4)nc3c2)c1Cl [339(A3)]	–	0	–	–	−7	0	31	0 (0 indicates less than 40% mortality)	–	0 (0 indicates less than 40% mortality)
Cc1nsc(NC(=O)Cc2ccc3oc(Cc4c(F)c(F)c(F)c(F)c4F)nc3c2)c1Cl [239(A3)]	51	–	5	–	23	–	3	0 (0 indicates less than 40% mortality)	11	–
Cc1nsc(NC(=O)Cc2ccc3oc(C=Cc4ccc([N+](=O)[O-])cc4)nc3c2)c1Cl [63(A3)]	14	66	13	–	40	2	69	–	–	–
Cc1nsc(NC(=O)Cc2ccc3oc(CSc4ccccc4)nc3c2)c1Cl [173(A3)]	−12	77	50	–	16	2	63	0 (0 indicates less than 40% mortality)	–	–
Cc1nsc(NC(=O)Cc2ccc3oc(-c4ccncc4)nc3c2)c1Cl [339((A3)]	26	–	8	–	–	–	–	–	33	–
Cc1nsc(NC(=O)Cc2ccc3oc(O)nc3c2)c1Cl [351(A3)]	11	–	–	–	–	–	–	0 (0 indicates less than 40% mortality)	–	0 (0 indicates less than 40% mortality)
Cc1nsc(NC(=O)Cc2ccc3oc(C(c4ccccc4)c4ccccc4)nc3c2)c1Cl [246(A3)]	−7	79	13	–	16	27	13	0 (0 indicates less than 40% mortality)	–	–
Cc1nsc(NC(=O)Cc2ccc3oc(C(F)(F)C(F)F)nc3c2)c1Cl [79(A3)]	90	–	88	–	100	14	100	0 (0 indicates less than 40% mortality)	98	–
Cc1nsc(NC(=O)Cc2ccc3oc(C(C)Cl)nc3c2)c1Cl (racemic) [93(A3)]	10	49	6	–	32	24	38	0 (0 indicates less than 40% mortality)	–	–
Cc1nsc(NC(=O)Cc2ccc3oc(C4CCCCC4)nc3c2)c1Cl [35((A3)]	100	–	70	–	–	–	–	–	98	–
Cc1nsc(NC(=O)Cc2ccc3oc(-c4c(Cl)cc(C(F)(F)F)cc4Cl)nc3c2)c1Cl [244(A3)]	–	–	45	–	3	−2	84	0 (0 indicates less than 40% mortality)	−2	–
CCCc1nc2ccc(CC(=O)Nc3snc(C)c3Cl)cc2[nH]1 [4(A43)]	35	0	–	–	–	0	31	–	38	–
Cc1nc2ccc(CC(=O)Nc3snc(C)c3Cl)cc2o1 [2(A23)]	–	100	–	–	−3	53	77	0 (0 indicates less than 40% mortality)	–	0 (0 indicates less than 40% mortality)
CCCc1nc2ccc(CC(=O)Nc3snc(C)c3Cl)cc2o1 [4(A23)]	–	100	–	–	59	63	100	0 (0 indicates less than 40% mortality)	–	0 (0 indicates less than 40% mortality)
COc1ccccc1-c1nc2cc(CC(=O)Nc3snc(C)c3Cl)ccc2o1 [305(A3)]	19	74	−6	16	16	−2	81	0 (0 indicates less than 40% mortality)	–	–
Cc1nsc(NC(=O)Cc2ccc3oc(CC4CCCC4)nc3c2)c1Cl [42(A3)]	100	100	74	92	92	11	99	0 (0 indicates less than 40% mortality)	–	–
CCCC(C)c1nc2cc(CC(=O)Nc3snc(C)c3Cl)ccc2o1 (centres unmarked) [12(A3)]	100	100	63	–	95	17	100	9 (9 indicates 80-100% mortality)	–	–
Cc1nsc(NC(=O)Cc2ccc3oc(-c4cccs4)nc3c2)c1Cl [330(A3)]	14	99	6	–	87	37	99	0 (0 indicates less than 40% mortality)	–	–
Cc1nsc(NC(=O)Cc2ccc3oc(C4(C)CCCCC4)nc3c2)c1Cl [36(A3)]	99	100	44	–	72	2	91	0 (0 indicates less than 40% mortality)	–	–
